Data reported in the NIST ThermoML archive (doi:10.1016/j.fluid.2015.08.008).
Numbers after ± are expanded uncertainties.

How the values were obtained:
[1] = 101.33 kPa, Liquid, Vibrating tube method
[2] = Boiling temperature at pressure P; conditions: Liquid, distillation unit - dew point temperature

C1CN=C2CCCN2C1 [1,5-diazabicyclo[4.3.0]non-5-ene]
Conditions	Boiling temperature at pressure P [°C]	mass density [kg/m3]
[1], 293.15 K	–	1037.59 ± 0.065
[1], 298.15 K	–	1033.58 ± 0.063
[1], 303.15 K	–	1029.56 ± 0.061
[1], 308.15 K	–	1025.52 ± 0.06
[1], 313.15 K	–	1021.49 ± 0.058
[1], 318.15 K	–	1017.4 ± 0.056
[1], 323.15 K	–	1013.33 ± 0.054
[2], 0.71 kPa	85.69 ± 20	–
[2], 0.91 kPa	90.86 ± 18	–
[2], 0.92 kPa	91.46 ± 17	–
[2], 1.39 kPa	98.20 ± 13	–
[2], 1.41 kPa	98.90 ± 12	–
[2], 1.87 kPa	105.99 ± 14	–
[2], 2.81 kPa	114.1 ± 8.1	–
[2], 2.86 kPa	114.66 ± 8.1	–
[2], 3.37 kPa	117.81 ± 7.5	–
[2], 3.88 kPa	120.18 ± 6.4	–
[2], 5.11 kPa	127.00 ± 6.2	–
[2], 5.53 kPa	128.91 ± 5.3	–
[2], 6.11 kPa	131.70 ± 4.6	–
[2], 7.15 kPa	134.78 ± 4.5	–
[2], 8.11 kPa	139.00 ± 4.2	–
[2], 9.4 kPa	142.40 ± 3.5	–
[2], 10.12 kPa	144.50 ± 3.5	–
[2], 12.14 kPa	149.60 ± 3.6	–

C1CCC2=NCCCN2CC1 [1,8-diaza-7-bicyclo[5.4.0]undecene]
[2]
Conditions	Boiling temperature at pressure P [°C]
0.51 kPa	102.62 ± 25
0.71 kPa	110.30 ± 20
1.01 kPa	116.2 ± 16
1.31 kPa	122.00 ± 14
1.51 kPa	124.60 ± 19
1.71 kPa	127.70 ± 14
2.01 kPa	130.80 ± 13
2.31 kPa	133.90 ± 12
2.51 kPa	136 ± 11
3.01 kPa	139.72 ± 9.8
3.31 kPa	143.00 ± 9.2
3.51 kPa	143.80 ± 8.8
4.01 kPa	147.87 ± 8.2
4.21 kPa	149.07 ± 6.8
4.51 kPa	150.98 ± 6.4
5.01 kPa	153.77 ± 5.8
5.31 kPa	154.70 ± 5.8
6.31 kPa	159.30 ± 5.7
7.31 kPa	164.1 ± 5.9
